Read-outs that look alike come from different tables or passages of the source.

Data set [1] in a line: Drug concentrations in compartments of the murine FRT after IP dosing. The class given is in vivo, mouse. As to conditions: 10 mg/kg IP; for concentration at 0.25 hr / concentration at 0.5 hr / concentration at 1 hr / concentration at 3 hr / concentration at 6 hr / concentration at 24 hr: mouse. The protocol: (§1) Samples were analyzed via electrospray ionization (ESI) LC-MS/MS on an AB Sciex 4500 (Foster City, CA) triple-quadrupole instrument that was coupled with an Agilent 1290 Infinity Binary Pump and multisampler (Santa Clara, CA) and concentrations (ng/mL or ng/g) were determined using a matrix-matched 10-point standard curve and then converted to nM concentrations. Quantitation of compounds was performed via AB Sciex Multiquant software using the raw analyte:IS peak area ratios. The typical detection range was 0.5 ng/mL to ≥5000 ng/mL utilizing a quadratic equation regression with 1/x² weighting. Correction for dilution of all tissue samples was performed postquantitation. The corrections for dilution in the extraction buffer employed correction factors specific to each tissue weight.
In subsequent experiments, mice were dosed by injection into the peritoneum (ip) as a single 10 mg/kg dose, the reproductive organs were dissected, and the ovaries, the oviducts, and the uterus were pooled from 2 animals and frozen. Tissues were subjected to mechanical homogenization (Mini-BeadBeater, BioSpec Products, Inc., Bartlesville, OK) in the presence of stainless-steel beads (1.0 mm) and extraction buffer (isopropanol:water, 7:3, v/v; 1 mL per sample for whole reproductive organs and uterus and 250 μL for ovaries and oviducts). Homogenized tissue samples were then centrifuged (4000 rcf, 5 min, ambient temperature), and 5 μL of the supernatant was used for quantification of the analyte. The plasma standard curve and QCs were used for compound quantitation in reproductive tissues.

A short description of data set [2]: Discrete IV PK in female mice. As to conditions: 5 mg/kg IV. Format: in vivo, mouse. The protocol: In-life phase–Compounds were formulated in 12% ethanol, 48% PEG400, and 40% DMSO (v/v/v) at a concentration of 1 mg/mL and administered as a single 0.2 mg/kg IV dose (1 mL/kg) to male, Sprague–Dawley rats (n = 1; 342 g body weight) via injection into a surgically implanted jugular vein catheter. Blood samples were collected serially from a surgically implanted carotid artery catheter in each animal over multiple postadministration time points (0.033, 0.117, 0.25, 0.5, 1, 2, 4, 7, and 24 h) into chilled, K2EDTA anticoagulant-fortified tubes and immediately placed on wet ice. The blood samples were then centrifuged (1700 rcf, 5 min, 4 °C) in order to obtain plasma samples, which were stored at −80 °C until analysis by LC-MS/MS. VU6032735 was also dosed IV in C57Bl6 mice at 5 mg/kg IV to determine mouse PK. Formulation and experimental design were identical to those used for rats except that whole blood was used for analysis.
as §1

The next data set has as its target T1, hSLO2.2 (Homo sapiens, UniProt Q5JUK3).
T1 construct: expressed in transfected cells; host or cells: HEK
The data set is described as follows: SLO2.2 inhibition in HEK cells. The class given is cell-based.

The mark [3] stands for this setting: ovary, female mice, read-out: Ovary concentration.
Where [4] appears, read: oviduct, female mice, read-out: Oviduct concentration.
The mark [5] stands for this setting: plasma, female mice, read-out: Plasma concentration.
Setting [6] is: uterus, female mice, read-out: Uterus concentration.

T1 sequence (Q5JUK3 whole entry): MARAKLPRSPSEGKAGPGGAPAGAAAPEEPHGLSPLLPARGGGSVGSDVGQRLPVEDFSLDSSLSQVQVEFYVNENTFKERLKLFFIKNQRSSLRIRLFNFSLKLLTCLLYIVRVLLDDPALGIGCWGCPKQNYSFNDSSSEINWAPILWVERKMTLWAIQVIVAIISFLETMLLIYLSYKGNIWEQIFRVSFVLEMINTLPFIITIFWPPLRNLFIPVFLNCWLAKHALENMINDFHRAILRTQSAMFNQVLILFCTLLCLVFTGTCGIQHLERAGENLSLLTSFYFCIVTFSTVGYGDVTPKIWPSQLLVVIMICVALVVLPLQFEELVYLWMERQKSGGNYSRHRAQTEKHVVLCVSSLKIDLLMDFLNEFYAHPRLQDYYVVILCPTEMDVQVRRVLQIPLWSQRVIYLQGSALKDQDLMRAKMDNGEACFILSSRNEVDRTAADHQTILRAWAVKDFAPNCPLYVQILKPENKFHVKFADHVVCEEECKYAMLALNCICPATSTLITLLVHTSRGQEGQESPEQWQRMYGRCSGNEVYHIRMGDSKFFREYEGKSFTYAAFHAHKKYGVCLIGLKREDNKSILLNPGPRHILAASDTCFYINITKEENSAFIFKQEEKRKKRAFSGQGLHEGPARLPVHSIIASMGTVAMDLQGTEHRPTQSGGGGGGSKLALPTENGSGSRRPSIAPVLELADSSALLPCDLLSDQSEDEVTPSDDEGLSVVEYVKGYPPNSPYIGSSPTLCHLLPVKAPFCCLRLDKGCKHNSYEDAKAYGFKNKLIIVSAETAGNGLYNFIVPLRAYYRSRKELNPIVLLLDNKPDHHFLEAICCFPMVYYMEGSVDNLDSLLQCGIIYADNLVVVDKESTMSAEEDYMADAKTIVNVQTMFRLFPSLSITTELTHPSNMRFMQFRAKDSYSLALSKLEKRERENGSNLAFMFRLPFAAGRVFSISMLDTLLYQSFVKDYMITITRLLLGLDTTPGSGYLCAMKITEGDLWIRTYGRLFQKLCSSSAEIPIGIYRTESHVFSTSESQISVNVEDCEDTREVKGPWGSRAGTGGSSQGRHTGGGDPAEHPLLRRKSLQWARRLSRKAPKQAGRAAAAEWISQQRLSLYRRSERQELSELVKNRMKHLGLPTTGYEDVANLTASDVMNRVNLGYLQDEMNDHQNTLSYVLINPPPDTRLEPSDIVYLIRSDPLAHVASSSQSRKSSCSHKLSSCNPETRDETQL

For the compound `O=C(c1ccc(OCc2ccc(OC(F)(F)F)cc2)cc1)N1CCN(c2ccc(C(F)(F)F)cn2)CC1` [VU6032735], in data set [1] (24 h, versus IC50 in mouse sperm and in mSLO3-γ2 HEK293 cells), the “oviduct total drug concentration relative to mSLO3 IC50” value is reported as 4.4- to 5.5 fold. Further, in data set [1] (female mice), the “oviduct concentration relative to ovary” value is 10 fold and the “oviduct concentration relative to uterus” value amounted to 5 fold. In data set [1] (female mice, for 24 h after dosing), the “total concentrations in the different compartments of the reproductive tract” value is listed as “above 1 μM”. Further, in data set [1] (setting [3]), the concentration at 0.25 hr stood at 7.52 µM, the concentration at 0.5 hr is 7.69 µM, the concentration at 1 hr stood at 7.45 µM and the concentration at 3 hr was 2.63 µM. Also, in data set [1] (setting [3]), the concentration at 6 hr worked out at 3.54 µM and the concentration at 24 hr was determined as 1.97 µM. In data set [1] (setting [4]), the concentration at 0.25 hr turned out to be 73 µM, the concentration at 0.5 hr was 94.8 µM, the concentration at 1 hr came out at 95.2 µM and the concentration at 3 hr was 93.6 µM. In data set [1] (setting [4]), the concentration at 6 hr was 35.3 µM and the concentration at 24 hr is 4.02 µM. Further, in data set [1] (setting [5]), the concentration at 0.25 hr was 1.15 µM, the concentration at 0.5 hr was 0.45 µM, the concentration at 1 hr is 0.62 µM and the concentration at 3 hr was 0.98 µM. Further, in data set [1] (setting [5]), the concentration at 6 hr amounted to 2.14 µM and the concentration at 24 hr was 0.61 µM. Further, in data set [1] (setting [6]), the concentration at 0.25 hr was determined as 12.4 µM, the concentration at 0.5 hr was determined as 11.3 µM, the concentration at 1 hr stood at 21.8 µM and the concentration at 3 hr was determined as 4.35 µM. Besides, in data set [1] (setting [6]), the concentration at 6 hr was 6.66 µM and the concentration at 24 hr is 3.11 µM. The same compound returned a CLobs in data set [2] of 8.6 mL/min/kg. In data set [2] (C57Bl6, mouse, whole blood), this compound displayed an AUC of 9840 ng·h/mL and an MRT of 45.9 h. Also, the half-life in data set [2] (C57Bl6, mouse, whole blood, read-out: Elim. t1/2 (converted)) was 33.7 h. Moreover, the Vd in data set [2] (C57Bl6, mouse, whole blood, read-out: Vss) is 23.6 L/kg.

`Cc1cc(Cl)cc2sc(OC3CCN(C(=O)CCCS(=O)(=O)c4cccc(Br)c4)CC3F)nc12` (stereo not shown) [VU6045330]: the “HEK hSLO2.2 % inhib. 10 μM” value at hSLO2.2 is recorded as “No inhibition”.

Broadly, the AUC is the area under the concentration-time curve, a measure of exposure. Higher therefore signals more exposure. The term MRT denotes a mean duration of stay, worked out from the concentration-time curve.

These data come from publication PMC12441834, “Highly Potent and Subtype-Selective Sperm-Specific Potassium Channel SLO3 Inhibitors Display High Tissue Exposure in the Murine Female Reproductive Tract” (ACS Pharmacology & Translational Science, 2025).
